Laboratory results published in PubChem BioAssay (NCI).
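Growth conditions: 96-well plates. Treatment: test compound, 48 hours, 5 concentrations. Analysis: linear interpolation between bracketing concentrations; unreached endpoints set to highest concentration. TGI: concentration producing complete growth inhibition.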

Assays:
Test in all cases: NCI tumour cell line growth inhibition, 48 h
786-0 renal = test system: 786-0 renal
A498 renal = test system: A498 renal
A549 NSCLC = test system: A549 NSCLC
ACHN renal = test system: ACHN renal
CAKI-1 renal = test system: CAKI-1 renal
CCRF-CEM leukemia = test system: CCRF-CEM leukemia
COLO 205 colon = test system: COLO 205 colon
EKVX NSCLC = test system: EKVX NSCLC
HCC-2998 colon = test system: HCC-2998 colon
HCT-116 colon = test system: HCT-116 colon
HCT-15 colon = test system: HCT-15 colon
HL-60(TB) leukemia = test system: HL-60(TB) leukemia
HOP-62 NSCLC = test system: HOP-62 NSCLC
HOP-92 NSCLC = test system: HOP-92 NSCLC
HS 578T breast = test system: HS 578T breast
HT29 colon = test system: HT29 colon
IGROV1 ovarian = test system: IGROV1 ovarian
K-562 leukemia = test system: K-562 leukemia
KM12 colon = test system: KM12 colon
LOX IMVI melanoma = test system: LOX IMVI melanoma
M14 melanoma = test system: M14 melanoma
MALME-3M melanoma = test system: MALME-3M melanoma
MCF7 breast = test system: MCF7 breast
MDA-MB-231 breast = test system: MDA-MB-231 breast
MDA-MB-435 = test system: MDA-MB-435
MDA-N = test system: MDA-N
MOLT-4 leukemia = test system: MOLT-4 leukemia
NCI-H226 lung = test system: NCI-H226 lung
NCI-H23 lung = test system: NCI-H23 lung
NCI-H460 lung = test system: NCI-H460 lung
NCI-H522 lung = test system: NCI-H522 lung
NCI/ADR-RES ovarian = test system: NCI/ADR-RES ovarian
OVCAR-3 ovarian = test system: OVCAR-3 ovarian
OVCAR-4 ovarian = test system: OVCAR-4 ovarian
OVCAR-5 ovarian = test system: OVCAR-5 ovarian
OVCAR-8 ovarian = test system: OVCAR-8 ovarian
PC-3 prostate = test system: PC-3 prostate
RPMI-8226 leukemia = test system: RPMI-8226 leukemia
RXF 393 renal = test system: RXF 393 renal
SF-268 CNS = test system: SF-268 CNS
SF-295 CNS = test system: SF-295 CNS
SF-539 CNS = test system: SF-539 CNS
SK-MEL-2 melanoma = test system: SK-MEL-2 melanoma
SK-MEL-28 melanoma = test system: SK-MEL-28 melanoma
SK-MEL-5 melanoma = test system: SK-MEL-5 melanoma
SK-OV-3 ovarian = test system: SK-OV-3 ovarian
SN12C renal = test system: SN12C renal
SNB-19 CNS = test system: SNB-19 CNS
SNB-75 CNS = test system: SNB-75 CNS
SR leukemia = test system: SR leukemia
SW-620 colon = test system: SW-620 colon
T-47D breast = test system: T-47D breast
TK-10 renal = test system: TK-10 renal
U251 CNS = test system: U251 CNS
UACC-257 melanoma = test system: UACC-257 melanoma
UACC-62 melanoma = test system: UACC-62 melanoma
UO-31 renal = test system: UO-31 renal
DU-145 prostate = test system: DU-145 prostate

## CC(C)CC(NC(=O)C(Cc1ccccc1)NC(=O)[C@H]1CC[C@H](NC(=O)C(Cc2ccc(OC(C)(C)C)cc2)NC(=O)OC(C)(C)C)C1)C(N)=O (some centres not stated)
786-0 renal
  TGI: > 100 µM
A498 renal
  TGI: > 100 µM
A549 NSCLC
  TGI: > 100 µM
ACHN renal
  TGI: > 100 µM
CAKI-1 renal
  TGI: > 100 µM
CCRF-CEM leukemia
  TGI: 43.3 µM
COLO 205 colon
  TGI: 35.8 µM
EKVX NSCLC
  TGI: > 100 µM
HCC-2998 colon
  TGI: 27.5 µM
HCT-116 colon
  TGI: 28.2 µM
HCT-15 colon
  TGI: 48.9 µM
HL-60(TB) leukemia
  TGI: > 100 µM
HOP-62 NSCLC
  TGI: > 100 µM
HOP-92 NSCLC
  TGI: 59 µM
HS 578T breast
  TGI: 35.8 µM
HT29 colon
  TGI: 46.2 µM
IGROV1 ovarian
  TGI: 77.8 µM
K-562 leukemia
  TGI: 47.9 µM
KM12 colon
  TGI: 44.1 µM
LOX IMVI melanoma
  TGI: 35.1 µM
M14 melanoma
  TGI: 33.7 µM
MALME-3M melanoma
  TGI: 61 µM
MCF7 breast
  TGI: 31.9 µM
MDA-MB-231 breast
  TGI: 97 µM
MDA-MB-435
  TGI: 41.2 µM
MDA-N
  TGI: 41.1 µM
MOLT-4 leukemia
  TGI: 53.6 µM
NCI-H226 lung
  TGI: 45.2 µM
NCI-H23 lung
  TGI: 31.4 µM
NCI-H460 lung
  TGI: 39.7 µM
NCI-H522 lung
  TGI: 33.7 µM
NCI/ADR-RES ovarian
  TGI: > 100 µM
OVCAR-3 ovarian
  TGI: 58 µM
OVCAR-4 ovarian
  TGI: > 100 µM
OVCAR-5 ovarian
  TGI: > 100 µM
OVCAR-8 ovarian
  TGI: 36 µM
PC-3 prostate
  TGI: 59.3 µM
RPMI-8226 leukemia
  TGI: > 100 µM
RXF 393 renal
  TGI: > 100 µM
SF-268 CNS
  TGI: > 100 µM
SF-295 CNS
  TGI: 83.5 µM
SF-539 CNS
  TGI: 42.6 µM
SK-MEL-2 melanoma
  TGI: 34.8 µM
SK-MEL-28 melanoma
  TGI: 51.5 µM
SK-MEL-5 melanoma
  TGI: 20.1 µM
SK-OV-3 ovarian
  TGI: > 100 µM
SN12C renal
  TGI: 31.5 µM
SNB-19 CNS
  TGI: 53.9 µM
SNB-75 CNS
  TGI: > 100 µM
SR leukemia
  TGI: > 100 µM
SW-620 colon
  TGI: 94.3 µM
T-47D breast
  TGI: 46.9 µM
TK-10 renal
  TGI: 86.9 µM
U251 CNS
  TGI: 28.6 µM
UACC-257 melanoma
  TGI: 37 µM
UACC-62 melanoma
  TGI: 41.8 µM
UO-31 renal
  TGI: > 100 µM

## C=CC1(c2ccc(-c3ccccc3)cc2)OCCO1
786-0 renal
  TGI: > 100 µM
A549 NSCLC
  TGI: > 100 µM
ACHN renal
  TGI: > 100 µM
CCRF-CEM leukemia
  TGI: 86.4 µM
COLO 205 colon
  TGI: > 100 µM
DU-145 prostate
  TGI: > 100 µM
EKVX NSCLC
  TGI: > 100 µM
HCC-2998 colon
  TGI: > 100 µM
HCT-116 colon
  TGI: > 100 µM
HCT-15 colon
  TGI: > 100 µM
HOP-62 NSCLC
  TGI: > 100 µM
HOP-92 NSCLC
  TGI: 87.1 µM
HS 578T breast
  TGI: 69 µM
HT29 colon
  TGI: 81.2 µM
IGROV1 ovarian
  TGI: > 100 µM
K-562 leukemia
  TGI: 61.9 µM
KM12 colon
  TGI: > 100 µM
LOX IMVI melanoma
  TGI: > 100 µM
M14 melanoma
  TGI: > 100 µM
MALME-3M melanoma
  TGI: > 100 µM
MCF7 breast
  TGI: > 100 µM
MDA-MB-231 breast
  TGI: > 100 µM
MDA-MB-435
  TGI: > 100 µM
MDA-N
  TGI: > 100 µM
MOLT-4 leukemia
  TGI: > 100 µM
NCI-H226 lung
  TGI: 64.1 µM
NCI-H23 lung
  TGI: 89.8 µM
NCI-H460 lung
  TGI: > 100 µM
NCI-H522 lung
  TGI: > 100 µM
NCI/ADR-RES ovarian
  TGI: > 100 µM
OVCAR-3 ovarian
  TGI: > 100 µM
OVCAR-4 ovarian
  TGI: > 100 µM
OVCAR-5 ovarian
  TGI: > 100 µM
OVCAR-8 ovarian
  TGI: > 100 µM
PC-3 prostate
  TGI: > 100 µM
RPMI-8226 leukemia
  TGI: > 100 µM
RXF 393 renal
  TGI: 88.6 µM
SF-268 CNS
  TGI: > 100 µM
SF-295 CNS
  TGI: > 100 µM
SF-539 CNS
  TGI: > 100 µM
SK-MEL-2 melanoma
  TGI: 53.7 µM
SK-MEL-28 melanoma
  TGI: > 100 µM
SK-MEL-5 melanoma
  TGI: > 100 µM
SK-OV-3 ovarian
  TGI: > 100 µM
SN12C renal
  TGI: > 100 µM
SNB-19 CNS
  TGI: > 100 µM
SNB-75 CNS
  TGI: > 100 µM
SR leukemia
  TGI: 84.6 µM
SW-620 colon
  TGI: > 100 µM
T-47D breast
  TGI: > 100 µM
TK-10 renal
  TGI: > 100 µM
U251 CNS
  TGI: > 100 µM
UACC-257 melanoma
  TGI: > 100 µM
UACC-62 melanoma
  TGI: 89.1 µM
UO-31 renal
  TGI: > 100 µM
